PubChem BioAssay (NCI)
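Following 48 hours of exposure in 96-well plates, responses at five concentrations were used to interpolate endpoints linearly. At the TGI there is no net growth.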

Key:
Assay in all cases: DTP human tumour cell line panel, 48 h
M14 melanoma = test system: M14 melanoma
MDA-N = test system: MDA-N
NCI-H460 lung = test system: NCI-H460 lung
RXF 393 renal = test system: RXF 393 renal
BT-549 breast = test system: BT-549 breast
K-562 leukemia = test system: K-562 leukemia
NCI-H226 lung = test system: NCI-H226 lung
OVCAR-8 ovarian = test system: OVCAR-8 ovarian
OVCAR-5 ovarian = test system: OVCAR-5 ovarian
NCI-H23 lung = test system: NCI-H23 lung
MOLT-4 leukemia = test system: MOLT-4 leukemia
HL-60(TB) leukemia = test system: HL-60(TB) leukemia
SNB-19 CNS = test system: SNB-19 CNS
SK-MEL-28 melanoma = test system: SK-MEL-28 melanoma
HT29 colon = test system: HT29 colon
MCF7 breast = test system: MCF7 breast
MALME-3M melanoma = test system: MALME-3M melanoma
U251 CNS = test system: U251 CNS
UO-31 renal = test system: UO-31 renal
SK-MEL-5 melanoma = test system: SK-MEL-5 melanoma
CAKI-1 renal = test system: CAKI-1 renal
IGROV1 ovarian = test system: IGROV1 ovarian
A498 renal = test system: A498 renal
OVCAR-3 ovarian = test system: OVCAR-3 ovarian
SR leukemia = test system: SR leukemia
CCRF-CEM leukemia = test system: CCRF-CEM leukemia
PC-3 prostate = test system: PC-3 prostate
MDA-MB-435 = test system: MDA-MB-435
HCT-116 colon = test system: HCT-116 colon
SNB-75 CNS = test system: SNB-75 CNS
COLO 205 colon = test system: COLO 205 colon
T-47D breast = test system: T-47D breast
MDA-MB-231 breast = test system: MDA-MB-231 breast
UACC-62 melanoma = test system: UACC-62 melanoma
SN12C renal = test system: SN12C renal
786-0 renal = test system: 786-0 renal
RPMI-8226 leukemia = test system: RPMI-8226 leukemia
KM12 colon = test system: KM12 colon
SF-295 CNS = test system: SF-295 CNS
HS 578T breast = test system: HS 578T breast
HOP-62 NSCLC = test system: HOP-62 NSCLC
SF-268 CNS = test system: SF-268 CNS
HCC-2998 colon = test system: HCC-2998 colon
LOX IMVI melanoma = test system: LOX IMVI melanoma
HOP-92 NSCLC = test system: HOP-92 NSCLC
ACHN renal = test system: ACHN renal
SK-MEL-2 melanoma = test system: SK-MEL-2 melanoma
NCI-H522 lung = test system: NCI-H522 lung
SK-OV-3 ovarian = test system: SK-OV-3 ovarian
EKVX NSCLC = test system: EKVX NSCLC
SW-620 colon = test system: SW-620 colon
DU-145 prostate = test system: DU-145 prostate
HCT-15 colon = test system: HCT-15 colon
NCI/ADR-RES ovarian = test system: NCI/ADR-RES ovarian
OVCAR-4 ovarian = test system: OVCAR-4 ovarian
UACC-257 melanoma = test system: UACC-257 melanoma
A549 NSCLC = test system: A549 NSCLC
SF-539 CNS = test system: SF-539 CNS
TK-10 renal = test system: TK-10 renal

SMILES: CC1(C)CC[C@]2(C(=O)O)CC[C@]3(C)C(=CC[C@@H]4[C@@]5(C)CC[C@H](OC6OC(C(=O)O)C(O)C(O)C6O)C(C)(C)[C@@H]5CC[C@]43C)[C@@H]2C1 (some centres undefined)
- TGI (M14 melanoma): 30.6 µM
- TGI (MDA-N): 33.8 µM
- TGI (NCI-H460 lung): 37.2 µM
- TGI (RXF 393 renal): 31.1 µM
- TGI (BT-549 breast): 40.5 µM
- TGI (K-562 leukemia): 37.5 µM
- TGI (NCI-H226 lung): 39.5 µM
- TGI (OVCAR-8 ovarian): 44.9 µM
- TGI (OVCAR-5 ovarian): 29.7 µM
- TGI (NCI-H23 lung): 37.1 µM
- TGI (MOLT-4 leukemia): 41.3 µM
- TGI (HL-60(TB) leukemia): 35.5 µM
- TGI (SNB-19 CNS): 48.7 µM
- TGI (SK-MEL-28 melanoma): 39.7 µM
- TGI (HT29 colon): 28.4 µM
- TGI (MCF7 breast): 40.8 µM
- TGI (MALME-3M melanoma): 34.2 µM
- TGI (U251 CNS): 28 µM
- TGI (UO-31 renal): 36.3 µM
- TGI (SK-MEL-5 melanoma): 33.2 µM
- TGI (CAKI-1 renal): 33.7 µM
- TGI (IGROV1 ovarian): 35 µM
- TGI (A498 renal): 35.7 µM
- TGI (OVCAR-3 ovarian): 28 µM
- TGI (SR leukemia): 41.1 µM
- TGI (CCRF-CEM leukemia): 42.8 µM
- TGI (PC-3 prostate): 33 µM
- TGI (MDA-MB-435): 38.5 µM
- TGI (HCT-116 colon): 30.4 µM
- TGI (SNB-75 CNS): 35.1 µM
- TGI (COLO 205 colon): 30.8 µM
- TGI (T-47D breast): 36.3 µM
- TGI (MDA-MB-231 breast): 33.5 µM
- TGI (UACC-62 melanoma): 33.4 µM
- TGI (SN12C renal): 30.8 µM
- TGI (786-0 renal): 33.6 µM
- TGI (RPMI-8226 leukemia): 44.4 µM
- TGI (KM12 colon): 34.7 µM
- TGI (SF-295 CNS): 28.7 µM
- TGI (HS 578T breast): 44 µM
- TGI (HOP-62 NSCLC): 33.9 µM
- TGI (SF-268 CNS): 38.6 µM
- TGI (HCC-2998 colon): 38.2 µM
- TGI (LOX IMVI melanoma): 35.8 µM
- TGI (HOP-92 NSCLC): 25.9 µM
- TGI (ACHN renal): 29.6 µM
- TGI (SK-MEL-2 melanoma): 29.8 µM
- TGI (NCI-H522 lung): 35.3 µM
- TGI (SK-OV-3 ovarian): 41.6 µM
- TGI (EKVX NSCLC): 64.8 µM
- TGI (SW-620 colon): 31.8 µM
- TGI (DU-145 prostate): 31.4 µM
- TGI (HCT-15 colon): 30.6 µM
- TGI (NCI/ADR-RES ovarian): 37.2 µM
- TGI (OVCAR-4 ovarian): 33.9 µM
- TGI (UACC-257 melanoma): 30.8 µM
- TGI (A549 NSCLC): 39.3 µM

SMILES: CC1(C)CC(=O)c2c(nc3c4c([nH]c(-c5ccc([N+](=O)[O-])cc5)c24)CC(C)(C)C3)C1
- TGI (M14 melanoma): > 100 µM
- TGI (MDA-N): > 100 µM
- TGI (NCI-H460 lung): > 100 µM
- TGI (RXF 393 renal): > 100 µM
- TGI (BT-549 breast): > 100 µM
- TGI (K-562 leukemia): > 100 µM
- TGI (NCI-H226 lung): > 100 µM
- TGI (OVCAR-8 ovarian): > 100 µM
- TGI (OVCAR-5 ovarian): > 100 µM
- TGI (NCI-H23 lung): > 100 µM
- TGI (MOLT-4 leukemia): > 100 µM
- TGI (HL-60(TB) leukemia): > 100 µM
- TGI (SF-539 CNS): > 100 µM
- TGI (SNB-19 CNS): > 100 µM
- TGI (SK-MEL-28 melanoma): > 100 µM
- TGI (HT29 colon): > 100 µM
- TGI (MCF7 breast): > 100 µM
- TGI (MALME-3M melanoma): > 100 µM
- TGI (U251 CNS): > 100 µM
- TGI (TK-10 renal): > 100 µM
- TGI (UO-31 renal): > 100 µM
- TGI (SK-MEL-5 melanoma): > 100 µM
- TGI (CAKI-1 renal): > 100 µM
- TGI (A498 renal): 44.6 µM
- TGI (OVCAR-3 ovarian): > 100 µM
- TGI (SR leukemia): 47.9 µM
- TGI (CCRF-CEM leukemia): > 100 µM
- TGI (PC-3 prostate): > 100 µM
- TGI (MDA-MB-435): > 100 µM
- TGI (HCT-116 colon): > 100 µM
- TGI (SNB-75 CNS): > 100 µM
- TGI (COLO 205 colon): 59 µM
- TGI (T-47D breast): > 100 µM
- TGI (MDA-MB-231 breast): > 100 µM
- TGI (UACC-62 melanoma): 93.4 µM
- TGI (SN12C renal): > 100 µM
- TGI (786-0 renal): > 100 µM
- TGI (KM12 colon): > 100 µM
- TGI (SF-295 CNS): > 100 µM
- TGI (HS 578T breast): > 100 µM
- TGI (HOP-62 NSCLC): > 100 µM
- TGI (SF-268 CNS): > 100 µM
- TGI (HCC-2998 colon): > 100 µM
- TGI (LOX IMVI melanoma): > 100 µM
- TGI (HOP-92 NSCLC): > 100 µM
- TGI (ACHN renal): > 100 µM
- TGI (SK-MEL-2 melanoma): > 100 µM
- TGI (NCI-H522 lung): > 100 µM
- TGI (SK-OV-3 ovarian): > 100 µM
- TGI (EKVX NSCLC): > 100 µM
- TGI (SW-620 colon): > 100 µM
- TGI (DU-145 prostate): > 100 µM
- TGI (HCT-15 colon): > 100 µM
- TGI (NCI/ADR-RES ovarian): > 100 µM
- TGI (OVCAR-4 ovarian): > 100 µM
- TGI (UACC-257 melanoma): > 100 µM
- TGI (A549 NSCLC): > 100 µM
